Holding throughout (type): cell-based
For one experiment, the system named is Hek293 empty vector. Nature of the experiment: In vitro cell viability (CellTiter-Glo), Hek293 empty vector. The following applies: Homo sapiens, HEK293; read-out: Hek293 empty vector viability. The gist of the method: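 HEK293 cells stably transduced with empty pCLPCX retroviral vector (puromycin-selected), seeded 1,000 cells/well, treated next day with compounds at various concentrations. Viability read by CellTiter-Glo luminescence 96 hrs after compound addition; IC50 derived.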

The next experiment relates to HepG2 XBP1(u)-Luc cells. Nature of the experiment: HepG2 XBP1 reporter assay. The conditions noted are these: Homo sapiens, 6 h. The gist of the method:
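Reporter cells are HepG2 stably carrying unspliced XBP1 fused to firefly luciferase, which becomes in-frame after IRE1alpha-mediated splicing. SteadyGlo luminescence was normalized to DMSO-treated cells for IC50 calculation.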

The test system of experiment [1] is Hek293 WFS1 over-expressor. Put plainly: In vitro cell viability (CellTiter-Glo), Hek293 WFS1 over-expressor. The following applies: Homo sapiens, HEK293, Hek293 WFS1 over-expressing cells; read-out: Hek293 WFS1 viability. The procedure, abridged: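 HEK293 cells stably overexpressing WFS1 via retroviral transduction (puromycin-selected), with empty-vector cells as counterpart, plated 1,000/well. Compounds added at various concentrations after overnight attachment; viability by CellTiter-Glo luminescence after 96 h, reported as IC50.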

The subject of another experiment is Colo-205 cells. Put plainly: Calcium flux assay (FLIPR Calcium 5). The following applies: Homo sapiens, COLO 205, 0.6 h, FLIPR Calcium 5, measured over 36 minutes. The method, then:
Compounds described herein induced ER stress by causing intracellular calcium flux. Calcium flux was measured in Colo-205 cells using the FLTPR® Calcium 5 Assay Kit according to manufacter's protocol (Molecular Devices, Cat. #R8186) on a FLIPR3 system (Molecular Devices). Calcium flux is measured over 36 minutes. The Colo-205 calcium flux assay data are summarized in Table 47: A<0.6 μM; 0.6 μM≤B<2.0 μM; 2.0 μM≤C<10.0 μM; D≥10.0 μM.

This note sets out measurements from patent US20230312587A1, “PTERIDINONE COMPOUNDS AND USES THEREOF” (Vertex Pharmaceutical Incorporated, priority 2018, published 2023).

On to `CN1C(=O)C(C)(C)N(C)c2nc(NCc3cnn(Cc4cccnc4C(F)(F)F)c3)ncc21` [Compound 237, 5,7,7,8-Tetramethyl-2-(((1-((2-(trifluoromethyl)pyridin-3-yl)methyl)-1H-pyrazol-4-yl)methyl)amino)-7,8-dihydropteridin-6(5H)-one], for which the IC50 in the experiment with Hek293 empty vector is not below 3000 nM; in the experiment with HepG2 XBP1(u)-Luc cells, 600 to 2000 nM; in experiment [1] it was 60 to 600 nM. Also, the EC50 in the experiment with Colo-205 cells was in the range of 600 to 2000 nM.
As for `Cc1nc(N[C@H]2C[C@@H](Oc3cc(F)c(F)c(F)c3)C2)nc2c1NC(=O)[C@H](C)N2C` [Compound 247, (7S)-4,7,8-trimethyl-2-((cis-3-(3,4,5-trifluorophenoxy)cyclobutyl)amino)-7,8-dihydropteridin-6(5H)-one], the IC50 in the experiment with Hek293 empty vector is not below 3000 nM; with HepG2 XBP1(u)-Luc cells, not below 10000 nM; in experiment [1], not below 3000 nM. In addition, the EC50 in the experiment on Colo-205 cells lay within 2000 to 10000 nM.
For `Cc1nc(N[C@H]2C[C@@H](Sc3ccc(F)cc3)C2)nc2c1N(C)C(=O)[C@H](C)N2C` [Compound 305, (7S)-2-((cis-3-((4-fluorophenyl)thio)cyclobutyl)amino)-4,5,7,8-tetramethyl-7,8-dihydropteridin-6(5H)-one], the results for the IC50 (in the experiment on Hek293 empty vector; in the experiment with HepG2 XBP1(u)-Luc cells; in experiment [1]) were not below 3000 nM, 2000 to 10000 nM and 60 to 600 nM, respectively. In addition, the EC50 in the experiment with Colo-205 cells is 600 to 2000 nM.
In the same order, the values of `Cc1nc(N[C@H]2C[C@H](Sc3ccc(F)cc3)C2)nc2c1N(C)C(=O)[C@H](C)N2C` [Compound 307, (7S)-2-((trans-3-((4-fluorophenyl)thio)cyclobutyl)amino)-4,5,7,8-tetramethyl-7,8-dihydropteridin-6(5H)-one] are not below 3000 nM, 600 to 2000 nM, 60 to 600 nM and 600 to 2000 nM.
In the same order, the values of `Cc1nc(N[C@H]2C[C@H](Oc3ccc(C(F)(F)F)nc3)C2)nc2c1NC(=O)[C@H](C)N2C` [Compound 324, (7S)-4,7,8-trimethyl-2-((trans-3-((6-(trifluoromethyl)pyridin-3-yl)oxy)cyclobutyl)amino)-7,8-dihydropteridin-6(5H)-one] are not below 3000 nM, less than 600 nM, less than 60 nM and less than 600 nM.
In the case of `Cc1nc(N[C@H]2C[C@H](Sc3cc(F)c(F)c(F)c3)C2)nc2c1NC(=O)[C@H](C)N2C` [Compound 329, (7S)-4,7,8-trimethyl-2-((trans-3-((3,4,5-trifluorophenyl)thio)-cyclobutyl)amino)-7,8-dihydropteridin-6(5H)-one], the IC50 in the experiment with Hek293 empty vector is not below 3000 nM; in the experiment with HepG2 XBP1(u)-Luc cells, less than 600 nM; in experiment [1] it was less than 60 nM. Also, the EC50 in the experiment on Colo-205 cells lay in the range of 600 to 2000 nM.
Turning to `Cc1nc(N[C@H]2C[C@@H](Sc3cc(F)c(F)c(F)c3)C2)nc2c1NC(=O)[C@H](C)N2C` [Compound 332, (7S)-4,7,8-trimethyl-2-((cis-3-((3,4,5-trifluorophenyl)thio)cyclobutyl)amino)-7,8-dihydropteridin-6(5H)-one], the figures for the IC50 (in the experiment on Hek293 empty vector; in the experiment on HepG2 XBP1(u)-Luc cells; in experiment [1]) were not below 3000 nM, less than 600 nM and less than 60 nM, respectively. For the same molecule, the EC50 in the experiment on Colo-205 cells is 600 to 2000 nM.
Regarding `Cc1nc(N[C@H]2C[C@H](Oc3ccnc(C(F)(F)F)c3)C2)nc2c1NC(=O)[C@H](C)N2C` [Compound 335, (7S)-4,7,8-trimethyl-2-((trans-3-((2-(trifluoromethyl)pyridin-4-yl)oxy)cyclobutyl)amino)-7,8-dihydropteridin-6(5H)-one], the IC50 in the experiment on Hek293 empty vector is not below 3000 nM; in the experiment on HepG2 XBP1(u)-Luc cells it was less than 600 nM; in experiment [1], less than 60 nM. The EC50 with Colo-205 cells was in the range of 600 to 2000 nM.
On to `Cc1nc(N[C@H]2C[C@@H](COc3ccc(C(F)(F)F)cn3)C2)nc2c1NC(=O)[C@H](C)N2C` [Compound 356, (7S)-4,7,8-trimethyl-2-((cis-3-(((5-(trifluoromethyl)pyridin-2-yl)oxy)methyl)cyclobutyl)amino)-7,8-dihydropteridin-6(5H)-one], for which the IC50 is not below 3000 nM in the experiment on Hek293 empty vector, less than 600 nM in the experiment with HepG2 XBP1(u)-Luc cells and less than 60 nM in experiment [1]. For the same molecule, the EC50 in the experiment with Colo-205 cells fell in the range of 600 to 2000 nM.
In the same order, the values of `Cc1nc(N[C@H]2C[C@H](Oc3ccc(F)nc3)C2)nc2c1NC(=O)[C@H](C)N2C` [Compound 357, (7S)-2-((trans-3-((6-fluoropyridin-3-yl)oxy)cyclobutyl)amino)-4,7,8-trimethyl-7,8-dihydropteridin-6(5H)-one] are not below 3000 nM, 2000 to 10000 nM, 60 to 600 nM and 600 to 2000 nM.
As for `Cc1nc(NCc2cnn(Cc3ccc(C(F)(F)F)nc3)c2)nc2c1NC(=O)[C@H](C(C)C)N2C` [Compound 383, (7S)-7-isopropyl-4,8-dimethyl-2-(((1-((6-(trifluoromethyl)pyridin-3-yl)methyl)-1H-pyrazol-4-yl)methyl)amino)-7,8-dihydropteridin-6(5H)-one], the IC50 in the experiment on Hek293 empty vector was not below 3000 nM; with HepG2 XBP1(u)-Luc cells, 600 to 2000 nM; in experiment [1], less than 60 nM. Besides, the 50% effective concentration (EC50) in the experiment with Colo-205 cells lay within 600 to 2000 nM.
Consider `Cc1nc(NCc2cnn(Cc3ccc(F)nc3)c2)nc2c1NC(=O)[C@H](C(C)C)N2C` [Compound 384, (7S)-2-(((1-((6-fluoropyridin-3-yl)methyl)-1H-pyrazol-4-yl)methyl)amino)-7-isopropyl-4,8-dimethyl-7,8-dihydropteridin-6(5H)-one], for which the IC50 is not below 3000 nM in the experiment with Hek293 empty vector, 600 to 2000 nM in the experiment on HepG2 XBP1(u)-Luc cells and less than 60 nM in experiment [1]. The 50% effective concentration (EC50) in the experiment on Colo-205 cells lay within 600 to 2000 nM.
As to `Cc1nc(NCc2cnn(Cc3ccc(C(F)(F)F)nc3)c2)nc2c1NC(=O)[C@H](C)N2C(C)C` [Compound 385, (7S)-8-isopropyl-4,7-dimethyl-2-(((1-((6-(trifluoromethyl)pyridin-3-yl)methyl)-1H-pyrazol-4-yl)methyl)amino)-7,8-dihydropteridin-6(5H)-one], the IC50 in the experiment with Hek293 empty vector was not below 3000 nM; with HepG2 XBP1(u)-Luc cells, less than 600 nM; in experiment [1] it was less than 60 nM. The EC50 in the experiment with Colo-205 cells is 600 to 2000 nM.
Regarding `Cc1nc(NCc2cnn(Cc3ccc(C(F)(F)F)nc3)c2)nc2c1NC(=O)[C@H](C1CC1)N2C` [Compound 386, (7S)-7-Cyclopropyl-4,8-dimethyl-2-(((1-((6-(trifluoromethyl)pyridin-3-yl)methyl)-1H-pyrazol-4-yl)methyl)amino)-7,8-dihydropteridin-6(5H)-one], the IC50 in the experiment with Hek293 empty vector was not below 3000 nM; with HepG2 XBP1(u)-Luc cells it was less than 600 nM; in experiment [1], less than 60 nM. Besides, the EC50 with Colo-205 cells lay in the range of 600 to 2000 nM.
With `Cc1nc(NCc2cnn(Cc3ccc(C(F)(F)F)nc3C(C)C)c2)nc2c1NC(=O)[C@H](C)N2C` [Compound 388, (7S)-2-(((1-((2-isopropyl-6-(trifluoromethyl)pyridin-3-yl)methyl)-1H-pyrazol-4-yl)methyl)amino)-4,7,8-trimethyl-7,8-dihydropteridin-6(5H)-one], the IC50 with Hek293 empty vector is not below 3000 nM; with HepG2 XBP1(u)-Luc cells, less than 600 nM; in experiment [1] it was less than 60 nM. Further, the EC50 with Colo-205 cells was less than 600 nM.
Regarding `CCN1c2nc(NCc3cnn(Cc4ccc(C(F)(F)F)nc4)c3)nc(C)c2NC(=O)[C@@H]1C` [Compound 395, (7S)-8-Ethyl-4,7-dimethyl-2-(((1-((6-(trifluoromethyl)pyridin-3-yl)methyl)-1H-pyrazol-4-yl)methyl)amino)-7,8-dihydropteridin-6(5H)-one], the IC50 is not below 3000 nM with Hek293 empty vector, 600 to 2000 nM in the experiment on HepG2 XBP1(u)-Luc cells and less than 60 nM in experiment [1]. The EC50 in the experiment with Colo-205 cells fell in the range of 600 to 2000 nM.
In the case of `Cc1nc(NCc2cnn(Cc3cc(C(F)(F)F)nn3C)c2)nc2c1NC(=O)[C@H](C1CC1)N2C` [Compound 396, (7S)-7-Cyclopropyl-4,8-dimethyl-2-(((1-((1-methyl-3-(trifluoromethyl)-1H-pyrazol-5-yl)methyl)-1H-pyrazol-4-yl)methyl)amino)-7,8-dihydropteridin-6(5H)-one], the IC50 was not below 3000 nM in the experiment with Hek293 empty vector, less than 600 nM with HepG2 XBP1(u)-Luc cells and less than 60 nM in experiment [1]. The EC50 with Colo-205 cells fell in the range of 600 to 2000 nM.
`Cc1nc(NCc2cnn(Cc3cc(C(F)(F)F)nn3C)c2)nc2c1NC(=O)[C@H](C(C)C)N2C` [Compound 397, (7S)-7-Isopropyl-4,8-dimethyl-2-(((1-((1-methyl-3-(trifluoromethyl)-1H-pyrazol-5-yl)methyl)-1H-pyrazol-4-yl)methyl)amino)-7,8-dihydropteridin-6(5H)-one]: the IC50 in the experiment with Hek293 empty vector was not below 3000 nM; in the experiment on HepG2 XBP1(u)-Luc cells, less than 600 nM; in experiment [1] it was less than 60 nM. In addition, the EC50 in the experiment with Colo-205 cells was in the range of 600 to 2000 nM.
For `Cc1nc(NCc2cnn(Cc3ccc(C(F)(F)F)nc3)c2)nc2c1NC(=O)C1(CCC1)N2C` [Compound 398, 4′,8′-dimethyl-2′-(((1-((6-(trifluoromethyl)pyridin-3-yl)methyl)-1H-pyrazol-4-yl)methyl)amino)-5′,8′-dihydro-6′H-spiro[cyclobutane-1,7′-pteridin]-6′-one], the IC50 with Hek293 empty vector was not below 3000 nM; in the experiment with HepG2 XBP1(u)-Luc cells it was 600 to 2000 nM; in experiment [1], less than 60 nM. Moreover, in the experiment on Colo-205 cells, the concentration for a half-maximal effect (EC50) fell in the range of 600 to 2000 nM.
